≈ marks a conversion by molar mass, not a printed value.
Experiments:
[1] = AUC (0 to infinity) in C57BL/6 mouse at 3 mg/kg, iv; assay type: ADME, organism-based; design: dose 3 mg/kg, time infinity, route intravenous; conditions: in vivo
[2] = Half life in C57BL/6 mouse at 3 mg/kg, iv; assay type: ADME, organism-based; conditions: in vivo
[3] = Clearance in C57BL/6 mouse plasma at 3 mg/kg, iv; assay type: ADME, organism-based
[4] = Volume of distribution at steady state in C57BL/6 mouse at 3 mg/kg, iv; assay type: ADME, organism-based; conditions: in vivo, read-out: Vdss
[5] = AUC (0 to infinity) in C57BL/6 mouse at 3 mg/kg, po; assay type: ADME, organism-based; design: dose 3 mg/kg, time infinity, route oral; conditions: in vivo
[6] = Half life in C57BL/6 mouse at 3 mg/kg, po; assay type: ADME, organism-based; conditions: in vivo
[7] = Cmax in C57BL/6 mouse at 3 mg/kg, po; assay type: ADME, organism-based; design: dose 3 mg/kg, route oral; conditions: in vivo
[8] = Oral bioavailability in C57BL/6 mouse at 3 mg/kg; assay type: ADME, organism-based; conditions: in vivo
[9] = rat, microsomes
physchem = conditions: aqueous, pH 7.4
[10] = Permeability of the compound by PAMPA; assay type: ADME; conditions: read-out: permeability

Structure (SMILES) | t1/2 [9] | solubility (physchem) | Papp [10] | further results
CC(c1ccc(-c2cnc3c(-c4ccc(S(N)(=O)=O)c5ccccc45)cnn3c2)cc1)N1CCCC1 (stereo not given) | 22.8 min | 7 µg/mL (≈ 14.1 µM) | – | AUC(0-inf) [1]: 3220 ng·h/mL; half-life [2]: 210 min; clearance [3]: 16 mL/min/kg; Vd [4]: 4.6 L/kg; AUC(0-inf) [5]: 782 ng·h/mL; half-life [6]: 258 min; Cmax [7]: 67 ng/mL; bioavailability [8]: 24%
CN(C)CCOc1ccc(-c2cnc3c(-c4ccc(S(N)(=O)=O)c5ccccc45)cnn3c2)cn1 | 9.4 min | < 1 µg/mL | 8.8 ×10⁻⁶ cm/s | –
NS(=O)(=O)c1ccc(-c2cnn3cc(-c4ccc(N5CCNCC5)nc4)cnc23)c2ccccc12 | > 30 min | 1.4 µg/mL (≈ 2.88 µM) | 8.3 ×10⁻⁶ cm/s | –
CC(C)(N)c1ccc(-c2cnc3c(-c4ccc(S(N)(=O)=O)c5ccccc45)cnn3c2)cc1 | > 30 min | 10.6 µg/mL (≈ 23.2 µM) | 9.4 ×10⁻⁶ cm/s | –
NS(=O)(=O)c1ccc(-c2cnn3cc(-c4ccc(OCCN5CCCCC5)nc4)cnc23)c2ccccc12 | 20.9 min | < 1 µg/mL | 365 ×10⁻⁶ cm/s | –
NS(=O)(=O)c1ccc(-c2cnn3cc(-c4ccc(C5CCNCC5)cc4)cnc23)c2ccccc12 | > 30 min | < 1 µg/mL | 78.6 ×10⁻⁶ cm/s | –
NC1(c2ccc(-c3cnc4c(-c5ccc(S(N)(=O)=O)c6ccccc56)cnn4c3)cc2)CCC1 | – | < 1 µg/mL | – | –
NS(=O)(=O)c1ccc(-c2cnn3cc(-c4ccc(CN5CCCC5)cc4)cnc23)c2ccccc12 | 21.9 min | 8 µg/mL (≈ 16.5 µM) | 467 ×10⁻⁶ cm/s | –
NS(=O)(=O)c1ccc(-c2cnn3cc(-c4ccc(OCCN5CCCC5)cc4)cnc23)c2ccccc12 | > 30 min | 33 µg/mL (≈ 64.2 µM) | 317 ×10⁻⁶ cm/s | –
CC(N)c1ccc(-c2cnc3c(-c4ccc(S(N)(=O)=O)c5ccccc45)cnn3c2)cc1 (stereo not given) | – | 7.6 µg/mL (≈ 17.1 µM) | – | –
CC(C)(CN1CCCCC1)Oc1ccc(-c2cnc3c(-c4ccc(S(N)(=O)=O)c5ccccc45)cnn3c2)cc1 | 6.1 min | < 1 µg/mL | – | –

— ChEMBL document CHEMBL4261595, “Discovery of 3-(4-sulfamoylnaphthyl)pyrazolo[1,5-a]pyrimidines as potent and selective ALK2 inhibitors” (Bioorg Med Chem Lett, 2018)
